Results published in patent publication US7345078B2, “NF-κB inhibitors and uses thereof” (The Board of Trustees of Michigan State University, priority 2002, dated 2008).
Where two headings read alike, the source gives them in different places. Marks after values point to notes of the source that are not given here. Blank lines part the entries; values can stand above or below the molecule they belong to.

Legend:
RIF-1 murine tumor = test: RIF-1 murine model of tumor growth delay; assay type: in vivo, mice; settings: for Median (days to 4x): untreated 7.0; for Days to 4x (Ave ±SE): untreated 7.3 ± 0.6
Procedure: Tumor cells were injected, bilaterally, into the backs of mice. When tumors reached 100 mm^3, the mice were treated with an intraperitoneal injection of the compound. Tumor volumes were measured 3 times a week until they reached 4 times the size they were on the first treatment day. Data is recorded as “Days to 4×’ or ratio of ‘Days to 4×” of the treated over untreated controls.

NF-κB [1] = target: T1, NF-κB (Homo sapiens, UniProt P19838+Q04206); test: EMSA of nuclear NF-κB-DNA binding in nuclear extracts of PMA-stimulated Jurkat leukemia T-cells; assay type: cell-based; set-up: endogenous in cells; host or cells: Jurkat leukemia T-cells, clone E6-1 (ATCC), PMA-stimulated; nuclear extract
T1 sequence (Q04206 whole entry): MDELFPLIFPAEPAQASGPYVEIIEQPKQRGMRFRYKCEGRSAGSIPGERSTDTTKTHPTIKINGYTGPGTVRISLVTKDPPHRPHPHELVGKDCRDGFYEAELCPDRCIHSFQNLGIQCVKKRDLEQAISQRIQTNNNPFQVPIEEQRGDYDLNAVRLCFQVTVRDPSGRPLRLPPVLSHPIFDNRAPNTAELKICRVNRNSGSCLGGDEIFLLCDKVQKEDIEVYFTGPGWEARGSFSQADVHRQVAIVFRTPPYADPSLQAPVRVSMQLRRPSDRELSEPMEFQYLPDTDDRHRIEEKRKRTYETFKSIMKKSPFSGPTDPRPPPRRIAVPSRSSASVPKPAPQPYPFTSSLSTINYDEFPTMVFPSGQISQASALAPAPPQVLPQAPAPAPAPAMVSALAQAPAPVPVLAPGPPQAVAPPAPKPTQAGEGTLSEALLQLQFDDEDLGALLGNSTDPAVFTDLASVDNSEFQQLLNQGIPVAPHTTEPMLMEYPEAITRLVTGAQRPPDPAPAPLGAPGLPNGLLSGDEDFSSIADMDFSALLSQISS
T1 sequence (P19838 1-433 limits assumed): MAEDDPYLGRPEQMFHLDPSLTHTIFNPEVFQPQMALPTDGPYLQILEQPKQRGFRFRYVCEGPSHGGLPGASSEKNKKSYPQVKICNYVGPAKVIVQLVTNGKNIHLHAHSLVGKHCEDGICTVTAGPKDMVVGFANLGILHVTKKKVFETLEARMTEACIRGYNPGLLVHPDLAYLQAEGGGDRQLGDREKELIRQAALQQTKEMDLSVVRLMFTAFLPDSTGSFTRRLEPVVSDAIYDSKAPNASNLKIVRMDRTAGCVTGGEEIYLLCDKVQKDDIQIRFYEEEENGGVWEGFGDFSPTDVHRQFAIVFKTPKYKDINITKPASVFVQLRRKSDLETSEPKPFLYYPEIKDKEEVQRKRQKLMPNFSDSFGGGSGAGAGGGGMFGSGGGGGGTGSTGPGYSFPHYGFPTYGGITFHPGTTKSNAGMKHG
Procedure: (§1) All compounds were evaluated for their potential anti-inflammatory activity by examining the activity of NF-κB in vitro in nuclear extracts using the procedure from Breton and Charbot-Fletcher (Breton et al., J. Pharmacol. Exp. Ther. 282 459-466 (1997)). […] The Jurkat cells (1×10^7 cells/mL) are subsequently treated with various concentrations of imidazoline for 30 minutes at 37° C. followed by PMA stimulation (5.0 ng/mL) for an additional 5 hours. Nuclear extracts are incubated for 20 minutes with a double stranded Cy3 labeled NF-κB consensus oligonucleotide, 5′-[…]-3′ (SEQ ID NO:1) at room temperature. The crude mixture is loaded on a 5% non-denaturing polyacrylamide gel prepared in 1×Tris borate/EDTA buffer and electrophoresed at 200V for 2 hours. After electrophoresis the gel is analyzed using a phosphorimager (Biorad FX PLUS) for detection of the NF-κB-DNA binding.
EMSA assay for NF-κB-DNA binding was as follows. […] The Jurkat cells (1×10^6 cells/mL) were subsequently treated with various concentrations of the compounds for 30 minutes at 37° C. and 5% CO2 followed by PMA (50 ng/mL) and PHA ([…]) stimulation for an additional 30 minutes. The cells were harvested by centrifugation, washed in ice cold PBS and the nuclear extracts were prepared as previously described (Dignam, et al., Nucl. Acids Res 11: 1475-1489 (1983)). The protein concentration of the extracts was determined according to the Method of Bradford (1976) with BioRad reagents. Nuclear extracts are incubated for 20 minutes at room temperature with a double stranded Cy3 labeled NF-kB consensus oligonucleotide, 5′-[…] CCAGGC-3′ (SEQ ID NO:1). The binding mixture ([…]) contained 10 mM HEPES-NaOH pH 7.9, 4 mM tris-HCl, pH 7.9, 6.0 mM KCl, 1 mM EDTA, 1 mM DTT, 10% glycerol, 0.3 mg/mL bovide serum albumin and […] of poly (dI.dC). The binding mixtures ([…] of nuclear extract protein) were incubated for 20 minutes at room temrperature with 0.16 pmol of Cy3 labeled oligonucleotide. The mixture was loaded on a 4% polyacrylamide gel prepared in 1× tris borate/EDTA buffer and was electrophoresed at 200 V for 20 minutes. After electrophoresis the gel was analyzed using a phosphorimager (Biorad FX plus) for detection of the NF-kB—DNA binding.

NF-κB [2] = target: T1, NF-κB; test: IC50 values in Mammalian Jurkat cells Leukemia T cells; assay type: cell-based; set-up: endogenous in cells; host or cells: Jurkat leukemia T-cells, clone E6-1 (ATCC), PMA-stimulated; nuclear extract; settings: concentration at which 50% of the protein/enzyme is inhibited in cells
Procedure: as §1
IC50 values in Mammalian Jurkat cells Leukemia T cells: IC50 value is defined as the concentration of compounds at which 50% of the protein/enzyme is inhibited in cells (Table 3).

CEM cells = settings: for sensitization of CEM cells towards camptothecin: camptothecin 0.1 μM
Procedure: Imidazolines 28-33 were evaluated for their ability to enhance the activity of camptothecin in CEM cells. Induction of apoptosis is the hallmark of most chemotherapeutic agents including camptothecin. The systematic disassembly of apoptotic cells is accomplished by active caspases (Thornberry et al., Nature 356: 768-774 (1992); Nicholson et al., Trends Biochem. Sci. 22: 299-306 (1997)). A standard apoptosis assay is Promega's APO-ONE homogeneous caspase-3/7 assay, which takes advantage of this caspase activity to directly quantify the induction of apoptosis in cells (Thornberry et al., Nature 356: 768-774 (1992); Nicholson et al., Trends Biochem. Sci. 22: 299-306 (1997)). According to the hypothesis that NF-κB inhibition should enhance the activity of chemotherapeutic agents via the inhibition of anti-apoptotic signaling pathway—thus enhancement of apoptosis—(Boland, Biochem Soc Trans 29: 674-678 (2001); Chiao et al., Cancer 95: 1696-1705 (2002)), we investigated the effects of the imidazolines using this caspase-3/7 assay. This assay quantifies the level of apoptotic cell death induced by camptothecin with and without the imidazolines and will establish the direct level of enhancement of apoptosis by camptothecin.
Induction of apoptosis using caspase 3/7 assay was as follows. CEM cells (CCRF-CEM); Amer. Type Culture Collection, Rockville, Md.) were grown in RPMI-1640 Media (Gibco-BRL, Rockville, Md.) supplemented with 10% fetal bovine serum, penicillin (614 ηg/mL), streptomycin (10 μg/mL) and hepes buffer, pH 7.2 at 37° C., 5% CO2. DMSO was used as the vector for all drugs and added in the control experiments. Cell cultures were treated with 1 μM, 0.1 μM or 10 nM of the imidazolines and allowed to incubate at 37° C., 5% CO2. An aliquote was transferred to a 96-well plate and mixed with an equal volume of Apo-ONE™ Homogenous Caspase-3/7 assay (Promega Corporation) reagent. The contents of the plate were gently mixed and allowed to incubate for 1 hour. The fluorescence of each well was then measured on a Molecular Imager FX Pro at 532 nm. All reported data was the average of two independent experiments unless otherwise indicated.

[3] = IP, imidazoline 100 mg/kg, cis-platin 4 mg/kg, camptothecin 6 mg/kg

Structure (SMILES): C[C@]1(C(=O)O)N=C(c2ccccc2)N(Cc2ccccc2)[C@H]1c1ccccc1 (racemic) [Compound 1, Dl-(3S,4S)-1-Benzyl-4-methyl-2,5-diphenyl-4,5-dihydro-1H-imidazole-4-carboxylic acid]
Days Delay (tumor growth delay) (RIF-1 murine tumor; [3]): -0.57 days | Median (days to 4x) (RIF-1 murine tumor; [3]): 6.4 days | Days to 4x (Ave ±SE) (RIF-1 murine tumor; [3]): 6.5 ± 0.3 days | chemopotentiation of camptothecin (RIF-1 murine tumor; combinational treatment with camptothecin (CPT), RIF-1 tumors in mice): no significant chemopotentiation | chemopotentiation of cis-platin (RIF-1 murine tumor; combinational treatment with cis-platin (CDDP), RIF-1 tumors in mice): no significant chemopotentiation | inhibition at 1 µM (NF-κB [1]; compound 1.0 μM): 19% | IC50 (NF-κB [2]): 1950 nM

inhibition at 1 µM (NF-κB [1]; compound 1.0 μM): 68% | IC50 (NF-κB [2]): 40 nM
Structure (SMILES): COc1ccc([C@@H]2N(Cc3ccccc3)C(c3ccccc3)=N[C@]2(C)C(=O)O)cc1 (racemic) [Compound 2, Dl-(3S,4S)-1-Benzyl-5-(4-methoxyphenyl)-4-methyl-2-phenyl-4,5-dihydro-1H-imidazole-4-carboxylic acid]

Structure (SMILES): O=C(O)C1(Cc2c[nH]c3ccccc23)N=C(c2ccccc2)N(Cc2ccccc2)C1c1ccccc1 (racemic) [Compound 5, Dl-(3S,4S)-1-Benzyl-4-(1H-indol-3-ylmethyl)-2,5-diphenyl-4,5-dihydro-1H-imidazole-4-carboxylic acid]
% inhibition of NF-κB (NF-κB [1]; compound 1.0 μM): 0%

Structure (SMILES): CCOC(=O)[C@H]1N(c2ccc(F)cc2)C(c2ccccc2)=N[C@]1(C)C(=O)O (racemic) [Compound 8, Dl-(3S,4S)-1-(4-Fluorophenyl)-4-methyl-2-phenyl-4,5-dihydro-1H-imidazole-4,5-dicarboxylic acid 5-ethyl ester]
% inhibition of NF-κB (NF-κB [1]; compound 0.1 μM (100 nM)): 88% | % inhibition of NF-κB (NF-κB [1]; compound 1.0 μM): 94%

Structure (SMILES): CCOC(=O)[C@@]1(C)N=C(c2ccccc2)N(Cc2ccccc2)[C@H]1c1ccncc1 (racemic) [Compound 9, Dl-(3S,4S)-1-Benzyl-4-methyl-2-phenyl-5-pyridin-4-yl-4,5-dihydro-1H-imidazole-4-carboxylic acid ethyl ester]
% inhibition of NF-κB (NF-κB [1]; compound 0.1 μM (100 nM), 0.1 µM): 71%

Structure (SMILES): CCOC(=O)C1(C)N=C(c2ccccc2)N(Cc2ccccc2)C1c1ccccc1 (racemic) [Compound 10, Dl-(3S,4S)-1-Benzyl-4-methyl-2,5-diphenyl-4,5-dihydro-1H-imidazole-4-carboxylic acid ethyl ester]
% inhibition of NF-κB (NF-κB [1]; compound 0.1 μM (100 nM)): 22%

Structure (SMILES): CCOC(=O)[C@H]1N(c2ccc(F)cc2)C(c2ccccc2)=N[C@]1(C)C(=O)O (racemic) [Compound 29, dl-(4S,5S)-1-(4-Fluorophenyl)-4-methyl-2-phenyl-4,5-dihydro-1H-imidazole-4,5-dicarboxylic acid 5-ethyl ester]
Apoptosis (±S.D.) (CEM cells; Compound 1.0 μm alone, T-cells, 48 hour period, cells only = 1.00 (normalized)): 0.95 ± 0.24

Structure (SMILES): CCOC(=O)[C@H]1N(c2ccc(F)cc2)C(c2ccccc2)=N[C@@]1(C(=O)O)c1ccccc1 (racemic) [Compound 30, dl-(4S,5S)-1-(4-Fluorophenyl)-2,4-diphenyl-4,5-dihydro-1H-imidazole-4,5-dicarboxylic acid 5-ethyl ester]
Apoptosis (±S.D.) (CEM cells): 1.18 ± 0.20 | sensitization of CEM cells towards camptothecin (CEM cells; 0.01 μM imidazoline): sensitization | sensitization of CEM cells towards camptothecin (CEM cells; 0.1 μM imidazoline): sensitization | sensitization of CEM cells towards camptothecin (CEM cells; 1 μM imidazoline): sensitization

Structure (SMILES): C[C@]1(C(=O)O)N=C(c2ccccc2)N(Cc2ccccc2)[C@H]1c1ccncc1 (racemic) [Compound 31, dl-(4S,5S)-1-Benzyl-4-methyl-2-phenyl-5-pyridin-4yl-4,5-dihydro-1H-imidazole-4-carboxylic acid]
Apoptosis (±S.D.) (CEM cells): 1.18 ± 0.00^b | sensitization of CEM cells towards camptothecin (CEM cells; 0.01 μM imidazoline): sensitization | sensitization of CEM cells towards camptothecin (CEM cells; 0.1 μM imidazoline): sensitization | sensitization of CEM cells towards camptothecin (CEM cells; 1 μM imidazoline): sensitization

Structure (SMILES): N.N.[Cl][Pt][Cl] [Cis-platin, cis-platin, reference compound]
Days Delay (tumor growth delay) (RIF-1 murine tumor; [3]): 0.82 days | T/C (ratio of Days to 4x of treated over untreated controls) (RIF-1 murine tumor; [3]): 1.1 | Median (days to 4x) (RIF-1 murine tumor; [3]): 7.8 days | Days to 4x (Ave ±SE) (RIF-1 murine tumor; [3]): 8.1 ± 0.4 days
